The test system of one experiment is αSMA. Nature of the experiment: TGFβ-induced αSMA+ stress fiber formation in fibroblasts. It is filed as cell-based, human. To be noted: TGFβ 72 hours, DHX from 48-72 hours. The procedure: Media was then exchanged for the indicated conditions for each experiment. Cells were fixed in 3.7% formalin (Sigma-Aldrich), permeabilized in 0.25% Triton X-100 (Sigma-Aldrich) and then blocked with 1% BSA for 1 h. Cells or tissue sections were incubated overnight with mouse monoclonal antibody against αSMA (Sigma-Aldrich F3777), and/or a rabbit monoclonal antibody against YAP/TAZ (Cell Signaling D24E4) diluted 1:200 in PBS with 1% BSA. Cells were then washed and exposed to flourescence-conjugated secondary antibodies (Invitrogen) diluted 1:1000 and DAPI (Thermo Fisher Scientific). Images were taken with a Cytation5 (BioTek) microscope. For scoring αSMA positive cells (FIG. 12), an observer blinded to the treatment conditions counted αSMA-positive cells using a visual threshold for bright fibrous staining; a minimum of 200 cells was counted for each condition. YAP/TAZ localization was quantified (FIGS. 6-10, 24-26, and 29-30) using Gen5 (Biotek) software. Images were taken at 4× magnification of both DAPI and YAP/TAZ staining. […] Quantification of double positive (YAP/TAZ and αSMA) cells from lung tissue sections (FIG. 17-21) was performed similarly; however separate thresholds were established for both YAP/TAZ and αSMA. A minimum of 4000 cells was quantified for each mouse.

Another experiment has as its system hepatic stellate cells. The experiment can be described thus: TGFβ-mediated hepatic stellate cell activation, western blot of αSMA and fibronectin. In kind it is cell-based, human. To be noted: HSCs, TGFβ 48 hours, DHX 10 μM. The protocol: HSCs were stimulated with TGFβ for 48 hours+/−DHX (10 μM) prior to total protein isolation and western blot analysis of αSMA and Fibronectin. N=3 (***p<0.001, **p<0.01, *p<0.05 vs. Control+TGFβ).
Western Blotting: Cells were plated in EMEM containing 10% FBS overnight. Media was exchanged with EMEM containing 0.1% FBS for 24 hours. Prior to protein isolation cells were treated with the indicated concentration of compounds for the indicated time. Total protein was isolated using RIPA buffer (pH 8.0) containing Pierce Phosphatase Inhibitor (Thermo) and Halt Protease Inhibitor Cocktail (Thermo). Lysate total protein concentration was determined using Pierce BCA Protein Assay Kit (Thermo) and samples were run on a 10% polyacrylamide gel. Blots were incubated overnight with primary antibodies: pYAP (Ser 127, Cell Signaling D9W21), YAP/TAZ (Cell Signaling D24E4), GAPDH (Cell Signaling 14C10), HSC70 (Santa Cruz sc-7298), αSMA (Abcam ab5694), and fibronectin (Santa Cruz sc-9068) diluted 1:1000 in Li-Cor Odyssey Blocking Buffer. Blots were washed with TBS-Tween before 60 minute incubation with IR-dye-conjugated secondary antibodies (Li-Cor) diluted 1:10,000. Plates were imaged via a Li-Cor OdysseyXL system with quantification performed via densitometry. […]
A general note: A western blot detects proteins with antibodies after separation by electrophoresis.

Experiment [1] relates to YAP/TAZ. Nature of the experiment: YAP/TAZ nuclear localization in IMR-90 and other fibroblasts / mesenchymal cells (immunofluorescence). It is filed as cell-based, human. The following applies: cells with lower DRD1 and DRD5 expression than IMR-90.
In another experiment the test system is D1 receptor. To be noted: cited from earlier work.
The test system of another experiment is cAMP. The experiment can be described thus: cAMP assay (cAMP-Glo) in fibroblasts. It is filed as cell-based, human. The following applies: IPF patient-derived fibroblasts, 20 minutes, 10 μM. The protocol:
FIG. 9 contains a bar graph showing cAMP measured in IPF patient-derived fibroblasts treated for 20 minutes with DHX (10 μM)+/−SCH 39166 (3 μM). N=3 (**p<0.01 vs. 0.1% DMSO vehicle control).
N=3, IMR-90 lung fibroblasts.
cAMPAssay: IPF patient derived fibroblasts were plated in EMEM containing 10% FBS overnight. […] 20 minutes prior to cell lysis media was removed and cells were treated with “induction buffer” containing nonselective phosphodiesterase inhibitors and the indicated concentration of compound(s). Luminescence was measured on a Flexstation 3 (Molecular Devices) plate reader.
Background: Cyclic AMP is a second messenger, typically raised through Gs and lowered through Gi signalling.

For experiment [2], the system named is YAP/TAZ. Nature of the experiment: YAP/TAZ nuclear localization in IPF patient-derived lung fibroblasts treated with dopaminergic agonists. It is filed as cell-based, human. The following applies: 10 μM, 2 hours. In outline:
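Fibroblasts from IPF patients (N=4 patient samples) were exposed to dopaminergic agonists at 10 μM for 2 h before fixation. Cells were immunostained for YAP/TAZ with DAPI counterstain and imaged at 4×. Percent nuclear YAP/TAZ localization was quantified by automated image analysis.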

The structures appear in SMILES notation.

Turning to `Oc1cc2c(cc1O)[C@H]1c3ccccc3CN[C@@H]1CC2` (racemic) [Dihydrexidine], in the experiment on αSMA, the “TGFβ-induced myofibroblastic transition (αSMA+ stress fibers)” value is on record as “reversed this transition”. Moreover, the “TGFβ-mediated HSC expression of SMA and FN protein (western blotting)” value in the experiment on hepatic stellate cells was “significant reversal of both”. For the same molecule, the “YAP/TAZ nuclear localization in mesenchymal cells derived from uterine fibroids” value in the experiment on YAP/TAZ [1] was “marginal inhibition of YAP/TAZ nuclear localization”. The “efficacy at elevating cAMP (D1 receptor)” value with D1 receptor is “full magnitude cAMP response”. The cAMP result in the experiment on cAMP is “elevated cAMP”. For the same molecule, the “Nuclear localization (% of total cells)” value with YAP/TAZ [2] (IPF-1 patient fibroblasts) is on record as 13.22 % of total cells; in the experiment with YAP/TAZ [2] (IPF-2 patient fibroblasts), 21.79 % of total cells; in the experiment on YAP/TAZ [2] (IPF-3 patient fibroblasts), 27.63 % of total cells; in the experiment on YAP/TAZ [2] (IPF-4 patient fibroblasts) it was 21.08 % of total cells.

Source of the values: patent publication US12264163B2, “Compounds and methods for treating fibrotic pathologies” (Mayo Foundation for Medical Education and Research, priority 2019, dated 2025).
